US20200315241A1 (Nude Nicotine, Inc., priority 2017, published 2020)
Read-outs that look alike come from different tables or passages of the source.

Legend:
[1] = cited from earlier work
[2] = nicotine salt complex
[3] = tested on: respiratory tract; conditions: user perception, nicotine citrate compared with nicotine hexanoate
[4] = free-base nicotine; depending on concentration; cited from earlier work
[5] = Table 5, organic acid, second value
[6] = Table 7, nicotine salt (organic acid)
[7] = Table 7, nicotine salt (organic acid), second value
[8] = Table 7, nicotine salt (organic acid), third value printed in the cell

Molecule | pKa [1, 6] | other results
CC(=O)CC(=O)O [3-Oxobutanoic Acid (Acetoacetic Acid), 3-Oxobutanoic Acid] | – | pKa ([1]; Table 5, organic acid): 3.58
O=C(O)C[C@H](C(=O)O)[C@@H](O)C(=O)O [Isocitric Acid] | – | pKa ([1]; Table 5, organic acid): 3.29; pKa [1, 5]: 4.71; pKa ([1]; Table 5, organic acid, third value printed in the cell): 6.40
O=C(O)CC(O)C(=O)O (centres unmarked) [Malic Acid] | – | pKa ([1]; Table 5, organic acid): 3.51; pKa [1, 5]: 5.03; pKa1 ([1]; pH for binding of second carboxylic acid group): 5.03
CN1CCCC1c1cccnc1.O=C(O)C(=O)O.O=C(O)CC(O)C(=O)O (centres unmarked) [Nicotine N-malate-N′-oxalate] | – | pH [2]: ~5.5
CC(=O)O.CN1CCCC1c1cccnc1 (centres unmarked) [Nicotine acetate] | – | pH [2]: ~6.5
CN1CCCC1c1cccnc1.C[C@H](N)C(=O)O (centres unmarked) [Nicotine alanate] | 2.34 | –
CN1CCCC1c1cccnc1.O=C(O)C=C(CC(=O)O)C(=O)O (stereo not drawn) [Nicotine cis-aconitate] | 1.95 | –
CN1CCCC1c1cccnc1.O=C(O)CC(O)(CC(=O)O)C(=O)O [Nicotine citrate] | – | throat hit / sensation in the respiratory tract [3]: stronger throat hit
CN1CCCC1c1cccnc1.NCC(=O)O (centres unmarked) [Nicotine glycinate] | 2.34 | –
CN1CCCC1c1cccnc1.O=C(O)CC(C(=O)O)C(O)C(=O)O (centres unmarked) [Nicotine isocitrate] | 3.29 | pKa [1, 7]: 4.71; pKa [1, 8]: 6.40
CN1CCCC1c1cccnc1.O=C(O)CC(O)C(=O)O (centres unmarked) [Nicotine malate] | – | pH [2]: around 6.5
CN1CCCC1c1cccnc1.N[C@@H](Cc1ccccc1)C(=O)O (centres unmarked) [Nicotine phenylalanate] | 1.83 | –
C#CC(=O)O.CN1CCCC1c1cccnc1 (centres unmarked) [Nicotine propiolate] | 1.84 | –
CCC(=O)O.CN1CCCC1c1cccnc1 (centres unmarked) [Nicotine propionate] | – | pH [2]: ~6.5
CN1CCCC1c1cccnc1.O=C(O)C=C(CC(=O)O)C(=O)O (stereo not drawn) [Nicotine trans-aconitate] | 2.80 | pKa [1, 7]: 4.46
CN1CCCC1c1cccnc1.O=C(O)c1cc(C(=O)O)cc(C(=O)O)c1 [Nicotine trimesate] | 3.12 | pKa [1, 7]: 3.89; pKa [1, 8]: 4.70
CC(=O)C(=O)O [Pyruvic Acid] | – | pKa ([1]; Table 5, organic acid): 2.50
O=C(O)/C=C(/CC(=O)O)C(=O)O [cis-Aconitic Acid] | – | pKa ([1]; Table 5, organic acid): 1.95
CN1CCCC1c1cccnc1 (centres unmarked) [nicotine] | – | pH [4]: ~10
Nicotine 2-hydroxyisocaproate | 4.26 | –
Nicotine 3-hydroxyglutarate | 3.52 | –

Molecule | pKa [1, 6] | other results
Nicotine 4-hydroxybenzoate | 4.54 | –
Nicotine acetoacetate | 3.58 | –
Nicotine acetylsalicylate | 3.49 | –
Nicotine asparaginate | 2.02 | –
Nicotine cinnamate | 4.44 | –
Nicotine cysteinate | 1.96 | –
Nicotine gluconate | 3.86 | –
Nicotine glutarate | 4.34 | –
Nicotine hexanoate | 4.88 | –
Nicotine isocaproate | 5.09 | –
Nicotine levulinate | 4.64 | pKa [1]: 4.64
Nicotine lysinate | 2.18 | –
Nicotine methioninate | 2.28 | –
Nicotine phthalate | 2.76 | pKa [1, 7]: 4.92
Nicotine pyruvate | 2.50 | –
Nicotine tryptophanate | 2.83 | –
Nicotine valerate | 4.84 | –
Nicotine valinate | 2.32 | –
Nicotine vanillate | 4.51 | –
Oxalic Acid | – | pKa ([1]; Table 5, organic acid): 1.46; pKa [1, 5]: 4.40
